≈ marks a conversion by molar mass, not a printed value.
Key:
[1] = Solubility in phosphate buffer; assay type: physicochemical; conditions: read-out: solubility in phosphate buffer
hGPR65 I231L-SmBiT = molecular target: T1, hGPR65 I231L-SmBiT (Homo sapiens, UniProt Q8IYL9, I231L); experiment: Nano-BiT target engagement, LgBiT-mGs recruitment to hGPR65 I231L-SmBiT; assay type: cell-based; conditions: 10 μM
T1 construct: expressed in transfected cells; host or cells: Expi293F (Gibco), transient transfection
T1 sequence (Q8IYL9 whole entry I231L): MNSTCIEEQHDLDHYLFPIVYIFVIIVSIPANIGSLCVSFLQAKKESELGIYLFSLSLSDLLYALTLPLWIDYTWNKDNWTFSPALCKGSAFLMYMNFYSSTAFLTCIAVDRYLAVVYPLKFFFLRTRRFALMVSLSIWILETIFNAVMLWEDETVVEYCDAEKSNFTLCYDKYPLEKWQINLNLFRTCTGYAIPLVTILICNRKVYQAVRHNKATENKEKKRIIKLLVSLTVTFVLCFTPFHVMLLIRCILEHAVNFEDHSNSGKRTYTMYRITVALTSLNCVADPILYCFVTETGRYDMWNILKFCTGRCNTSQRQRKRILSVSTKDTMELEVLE
Description: Target engagement was measured in Expi293F (Gibco, 100044202) cells using the Nano-Glo Live Cell Assay System (Promega, N2011). Nano-BiT plasmids were cloned from GPR65-, GPR4-, and GPR68-Tango plasmids. GPR65-Tango (Addgene plasmid # 66370; http://n2t.net/addgene:66370; RRID:Addgene_66370), GPR4-Tango (Addgene plasmid # 66358; http://n2t.net/addgene:66358; RRID:Addgene_66358), and GPR68-Tango (Addgene plasmid # 66371; http://n2t.net/addgene:66371; RRID:Addgene_66371) were gifts from Bryan Roth. Expi293F cells were transfected 1 day before kinetics with 500 ng of each plasmid using ExpiFectamine 293 Transfection Kit (Gibco, A14525). After 24 hours, cells were collected, washed, and resuspended in room temperature 0.1% PBS-BSA, adjusted to pH 7.4 using 1 M NaOH. Cells were transferred to white opaque 96-well microplates (100 μl per well, PerkinElmer, 6005290), followed by addition of the Nano-Glo Live Cell Reagent (25 μl per well). Baseline luminescence was measured for 10 cycles (1 cycle = 90 s) before adding compounds. All luminescence measurements were made on BMG Labtech PHERAstar FSX. Data analysis was performed using GraphPad Prism.

mGPR65 = molecular target: T2, mGPR65 (Mus musculus, UniProt Q61038); experiment: cAMP detection, GPR65 KO HeLa reconstituted with mGPR65; assay type: cell-based; conditions: 0 to 50 μM, pH 7.2
T2 construct: expressed in transfected cells; host or cells: HeLa (ATCC CCL-2), lentiviral transduction, pLX317
T2 sequence (Q61038 whole entry): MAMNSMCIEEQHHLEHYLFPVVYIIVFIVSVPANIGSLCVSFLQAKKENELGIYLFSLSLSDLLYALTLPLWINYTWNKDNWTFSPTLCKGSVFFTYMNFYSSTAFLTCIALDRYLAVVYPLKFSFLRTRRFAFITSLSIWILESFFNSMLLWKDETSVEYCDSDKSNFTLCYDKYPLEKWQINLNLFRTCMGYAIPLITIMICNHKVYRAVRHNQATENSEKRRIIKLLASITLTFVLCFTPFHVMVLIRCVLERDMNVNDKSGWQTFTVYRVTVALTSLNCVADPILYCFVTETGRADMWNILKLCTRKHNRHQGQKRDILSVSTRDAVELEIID
Description: The Lance Ultra cAMP Kit (PerkinElmer, TRF0264) was used for cAMP detection, and included the following reagents: ULight anti-cAMP antibody, Eu-cAMP tracer, 7.5% BSA Stabilizer solution, and cAMP detection buffer. Stimulation buffer was prepared as described by the kit manufacturer as follows: Hanks buffered saline solution (HBSS, Life Technologies, 14025-126) containing 0.5 mM IBMX (3-isobutyl-1-methylxanthine, Sigma-Aldrich, I7018) and buffered with 1 M Hepes (15630-080). […] HeLa cells were lifted using Versene and then suspended at 2.5 × 10^5 cells/ml in stimulation buffer. Cells were then plated at 20 μl per well (5000 cells per well) in white, opaque OptiPlate 384-well MicroPlates (PerkinElmer, 6007299) using a Thermo Fisher Scientific Combi liquid dispenser. […] Eu-cAMP tracer and Förster resonance energy transfer (FRET) emissions were then read using a PerkinElmer EnVision Multimode plate reader (ENVISION21040010), exciting each well at 320 nm [UV2 (TRF) 320 filter] and reading emissions at 615 nm (Europium 615 filter) and 665 nm (APC665 filter). […]

Structure (SMILES)	solubility [1]	G protein recruitment in cells expressing hGPR65 I231L (hGPR65 I231L-SmBiT)	cAMP response, BTB09089 compared with BRD2813 (mGPR65)
Cc1ccc(NC(=O)c2cnn3c(O)cc(-c4ccc(COC(C)C)cc4)nc23)nc1 [BRD5075, O=C(NC1=NC=C(C)C=C1)C2=C3N(N=C2)C(O)=CC(C4=CC=C(COC(C)C)C=C4)=N3]	116 µM (≈ 48.4 µg/mL)	able to recruit G protein	
CN1N=C(SCc2ccc(Cl)cc2Cl)Sc2c1cnn(C)c2=O [BTB09089, reference compound]			more effective

From publication PMC11259170, “Small-molecule probe for IBD risk variant GPR65 I231L alters cytokine signaling networks through positive allosteric modulation” (Science Advances, 2024)
